In the test the target is DNA-dependent protein kinase catalytic subunit (Homo sapiens, UniProt P78527). Description: Inhibition of DNA-PK Kinase. The procedure: IC50 was calculated using GraphPad Prism 8.
DNA-dependent protein kinase catalytic subunit, sequence (P78527 whole entry): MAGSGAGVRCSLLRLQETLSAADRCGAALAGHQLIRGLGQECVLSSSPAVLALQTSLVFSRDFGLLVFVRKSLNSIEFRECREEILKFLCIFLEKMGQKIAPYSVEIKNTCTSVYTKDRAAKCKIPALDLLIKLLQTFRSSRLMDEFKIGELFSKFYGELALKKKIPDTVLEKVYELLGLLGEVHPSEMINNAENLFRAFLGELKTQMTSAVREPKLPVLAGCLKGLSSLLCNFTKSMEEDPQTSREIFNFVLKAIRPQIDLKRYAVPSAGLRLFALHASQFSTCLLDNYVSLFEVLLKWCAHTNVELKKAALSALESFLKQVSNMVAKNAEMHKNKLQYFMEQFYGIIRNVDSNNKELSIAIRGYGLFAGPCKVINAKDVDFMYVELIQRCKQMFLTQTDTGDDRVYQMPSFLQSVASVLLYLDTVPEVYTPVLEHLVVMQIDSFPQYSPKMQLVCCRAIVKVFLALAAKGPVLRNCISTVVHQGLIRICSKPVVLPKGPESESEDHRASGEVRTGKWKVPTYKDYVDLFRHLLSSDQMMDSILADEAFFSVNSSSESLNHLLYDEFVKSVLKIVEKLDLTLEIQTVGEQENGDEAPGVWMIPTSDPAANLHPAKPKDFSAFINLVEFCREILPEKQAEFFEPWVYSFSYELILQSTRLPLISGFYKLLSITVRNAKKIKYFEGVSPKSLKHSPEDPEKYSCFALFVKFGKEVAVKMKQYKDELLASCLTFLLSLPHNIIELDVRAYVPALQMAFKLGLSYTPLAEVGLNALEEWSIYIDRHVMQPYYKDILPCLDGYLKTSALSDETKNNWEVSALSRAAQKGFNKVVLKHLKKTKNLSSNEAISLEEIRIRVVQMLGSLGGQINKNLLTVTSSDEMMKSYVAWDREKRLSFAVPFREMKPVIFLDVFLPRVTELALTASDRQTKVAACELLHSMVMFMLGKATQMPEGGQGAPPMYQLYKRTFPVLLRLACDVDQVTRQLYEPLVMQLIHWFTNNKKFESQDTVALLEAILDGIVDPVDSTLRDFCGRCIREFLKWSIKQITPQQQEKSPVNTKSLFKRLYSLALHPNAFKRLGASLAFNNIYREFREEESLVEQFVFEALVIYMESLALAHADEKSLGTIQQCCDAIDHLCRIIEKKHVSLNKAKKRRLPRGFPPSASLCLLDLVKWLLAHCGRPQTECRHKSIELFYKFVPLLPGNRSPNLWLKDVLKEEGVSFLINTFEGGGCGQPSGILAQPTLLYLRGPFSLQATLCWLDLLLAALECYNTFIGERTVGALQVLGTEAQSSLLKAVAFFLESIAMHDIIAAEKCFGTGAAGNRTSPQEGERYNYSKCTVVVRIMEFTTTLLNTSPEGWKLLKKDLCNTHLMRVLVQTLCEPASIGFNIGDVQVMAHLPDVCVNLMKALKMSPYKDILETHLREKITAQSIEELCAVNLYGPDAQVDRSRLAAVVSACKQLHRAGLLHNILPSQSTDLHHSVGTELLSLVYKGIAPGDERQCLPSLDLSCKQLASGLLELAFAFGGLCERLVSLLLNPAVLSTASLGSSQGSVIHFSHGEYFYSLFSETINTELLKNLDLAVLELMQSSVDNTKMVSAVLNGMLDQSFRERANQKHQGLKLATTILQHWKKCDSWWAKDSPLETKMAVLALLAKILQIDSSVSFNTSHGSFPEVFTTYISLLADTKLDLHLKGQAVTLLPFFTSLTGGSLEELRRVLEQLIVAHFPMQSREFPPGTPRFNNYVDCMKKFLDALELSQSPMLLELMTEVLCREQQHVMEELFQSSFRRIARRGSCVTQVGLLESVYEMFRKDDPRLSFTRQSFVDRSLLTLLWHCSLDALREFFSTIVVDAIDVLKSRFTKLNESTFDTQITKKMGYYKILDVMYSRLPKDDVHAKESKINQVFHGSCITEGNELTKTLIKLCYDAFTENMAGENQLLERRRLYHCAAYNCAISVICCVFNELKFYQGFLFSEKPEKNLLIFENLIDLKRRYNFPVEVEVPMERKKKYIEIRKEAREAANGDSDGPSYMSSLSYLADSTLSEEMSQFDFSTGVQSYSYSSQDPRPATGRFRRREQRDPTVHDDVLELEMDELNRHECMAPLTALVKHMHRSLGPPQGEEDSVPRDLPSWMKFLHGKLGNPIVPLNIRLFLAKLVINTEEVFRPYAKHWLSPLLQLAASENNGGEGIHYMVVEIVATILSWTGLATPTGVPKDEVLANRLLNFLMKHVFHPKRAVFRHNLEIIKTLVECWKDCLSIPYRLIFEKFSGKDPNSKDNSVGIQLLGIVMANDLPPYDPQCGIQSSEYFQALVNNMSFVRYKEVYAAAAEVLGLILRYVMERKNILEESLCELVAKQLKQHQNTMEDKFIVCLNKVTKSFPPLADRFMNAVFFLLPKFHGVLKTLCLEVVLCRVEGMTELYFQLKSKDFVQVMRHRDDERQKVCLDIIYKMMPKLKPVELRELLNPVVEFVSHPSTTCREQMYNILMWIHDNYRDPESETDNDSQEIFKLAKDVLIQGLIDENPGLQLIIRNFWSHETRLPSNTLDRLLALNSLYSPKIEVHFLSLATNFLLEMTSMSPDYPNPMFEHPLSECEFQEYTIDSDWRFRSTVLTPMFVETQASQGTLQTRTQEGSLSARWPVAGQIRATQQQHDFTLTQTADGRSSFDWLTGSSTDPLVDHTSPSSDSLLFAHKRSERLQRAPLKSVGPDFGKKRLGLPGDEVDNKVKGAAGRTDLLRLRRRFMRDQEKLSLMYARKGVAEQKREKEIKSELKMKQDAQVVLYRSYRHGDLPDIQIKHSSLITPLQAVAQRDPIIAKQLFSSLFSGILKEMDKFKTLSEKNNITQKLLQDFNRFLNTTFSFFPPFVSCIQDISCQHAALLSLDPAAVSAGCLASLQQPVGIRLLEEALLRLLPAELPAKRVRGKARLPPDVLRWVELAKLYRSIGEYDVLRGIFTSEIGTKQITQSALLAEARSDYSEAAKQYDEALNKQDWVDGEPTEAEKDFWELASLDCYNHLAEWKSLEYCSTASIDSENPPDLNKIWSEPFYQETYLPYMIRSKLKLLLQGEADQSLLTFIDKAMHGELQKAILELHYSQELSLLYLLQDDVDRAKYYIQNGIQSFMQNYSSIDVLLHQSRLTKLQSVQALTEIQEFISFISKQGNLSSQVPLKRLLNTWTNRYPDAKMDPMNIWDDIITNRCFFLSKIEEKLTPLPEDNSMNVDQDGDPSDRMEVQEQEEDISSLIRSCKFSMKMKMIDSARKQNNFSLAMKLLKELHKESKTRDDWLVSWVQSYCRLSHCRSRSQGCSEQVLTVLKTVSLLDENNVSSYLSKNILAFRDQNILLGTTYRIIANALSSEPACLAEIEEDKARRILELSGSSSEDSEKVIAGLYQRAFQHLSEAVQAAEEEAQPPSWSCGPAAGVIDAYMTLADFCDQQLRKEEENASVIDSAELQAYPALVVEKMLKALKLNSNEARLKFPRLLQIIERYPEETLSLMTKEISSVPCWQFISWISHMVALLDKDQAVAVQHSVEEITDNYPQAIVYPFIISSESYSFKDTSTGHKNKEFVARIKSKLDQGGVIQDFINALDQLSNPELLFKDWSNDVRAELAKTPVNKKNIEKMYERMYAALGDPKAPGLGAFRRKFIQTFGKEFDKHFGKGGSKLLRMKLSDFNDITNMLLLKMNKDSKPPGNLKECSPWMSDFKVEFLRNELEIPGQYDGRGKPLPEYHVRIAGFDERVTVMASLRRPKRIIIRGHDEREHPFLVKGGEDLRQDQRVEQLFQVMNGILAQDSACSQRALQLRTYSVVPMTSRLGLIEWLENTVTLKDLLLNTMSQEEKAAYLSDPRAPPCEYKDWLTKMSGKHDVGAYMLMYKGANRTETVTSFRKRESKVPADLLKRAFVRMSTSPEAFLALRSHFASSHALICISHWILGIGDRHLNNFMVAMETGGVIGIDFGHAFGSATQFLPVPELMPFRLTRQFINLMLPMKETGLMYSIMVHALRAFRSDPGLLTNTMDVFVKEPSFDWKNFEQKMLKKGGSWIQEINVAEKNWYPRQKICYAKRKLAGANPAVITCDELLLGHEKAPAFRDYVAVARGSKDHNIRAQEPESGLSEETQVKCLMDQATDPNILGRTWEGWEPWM
In turn, `Cc1cc2ncnn2cc1Nc1ncc2c(n1)n(C1C3CC4CC1CC(O)(C4)C3)c(=O)n2C` (centres undefined) [US12552793, Compound 16-1] yielded an IC50 of 0.52 nM.

Compound `Cc1cc2ncnn2cc1Nc1ncc2c(n1)n(C1C3CC4CC1CC(O)(C4)C3)c(=O)n2C` (centres undefined) [US12552793, Compound 16-2] returned an IC50 of 2.49 nM. For `Cc1cc(C(N)=O)c(F)cc1Nc1ncc2c(n1)n(C13CC4CC(C1)C(O)C(C4)C3)c(=O)n2C` (centres undefined) [US12552793, Compound 17-1] the value was 0.01 nM. `Cc1cc(C(N)=O)c(F)cc1Nc1ncc2c(n1)n(C13CC4CC(C1)C(O)C(C4)C3)c(=O)n2C` (centres undefined) [US12552793, Compound 17-2] displayed an IC50 of 2.2 nM.

Regarding `[2H]C1(O)C2CC3CC1CC(n1c(=O)n(C)c4cnc(Nc5cn6ncnc6cc5C)nc41)(C3)C2` (centres undefined) [US12552793, Compound 20-1], 0.03 nM corresponded to half-maximal inhibition (IC50). The value for `[2H]C1(O)C2CC3CC1CC(n1c(=O)n(C)c4cnc(Nc5cn6ncnc6cc5C)nc41)(C3)C2` (centres undefined) [US12552793, Compound 20-2] was 1.1 nM; that for `[2H]C1(O)C2CC3CC1CC(n1c(=O)n(C)c4cnc(Nc5cc(F)c(C(N)=O)cc5C)nc41)(C3)C2` (centres undefined) [US12552793, Compound 23-1] was 2.84 nM; that for `[2H]C1(O)C2CC3CC1CC(n1c(=O)n(C)c4cnc(Nc5cc(F)c(C(N)=O)cc5C)nc41)(C3)C2` (centres undefined) [US12552793, Compound 23-2] was 0.85 nM. The value for `COC1(OC)C2CC3CC1CC(n1c(=O)n(C)c4cnc(Nc5cc(F)c(C(N)=O)cc5C)nc41)(C3)C2` [US12552793, Compound 26] was 0.01 nM.

The values are drawn from BindingDB's records for patent US12552793 (Kangbaida (Sichuan) Biotechnology Co., 2026).
